Results from US12311011B2, “Des-acyl ghrelin and analogs as cancer therapies” (Cornell University, priority 2018, dated 2025).
Where no end group is shown, it is not given here. The star is where a group is joined. Octanoyl = CCCCCCCC(=O)*

Legend:
MDA-MB-468 cells = experiment: 3D/2D cell growth assay (cell number, Hoechst); assay type: cell-based, human; settings: for cell growth in the presence of serum: 0.05-5 μM MK2206, 0.1-10 μM BKM120; for growth of MDA-MB-468 cells: 60 nM KT5720, 1.4 μM SQ22536, 15 μM cAMPs-RP; for forskolin-stimulated cell growth: 10 μM forskolin
Description: (§1) Human BC Cells. Human breast cancer cell lines, MCF7, T47D, ZR75, MDA-MB-231, MDA-MB-468, SKBR3, Hs578T and HEK293T, DU4475 and MDA-MB-157 were purchased from ATCC, USA. Human 4-OH tamoxifen resistant breast cancer cells (LCC2), RKO, RKO-T29, RKO-A19, HCT116, HCT116-HWT, HCT116-HMUT were cultured using methods were performed as described previously (Yun et al., Science 325(5947):1555-9 (2009)). MCF7, MDA-MB-231, MDA-MB-468, MDA-MB-157, Hs578T, HEK293T were grown in DMEM (Invitrogen), supplemented with 10% fetal calf serum (FCS) (Invitrogen), 100U/ml penicillin/streptomycin and 1% sodium pyruvate. ZR75, T47D, SKBR3 and DU4475 were grown in RPMI, supplemented with 10% FCS, 100 U/ml penicillin/streptomycin and 2 mM L-Glutamine (ThermoFisher Scientific). LCC2 were grown in phenol red-free DMEM, supplemented with 10% charcoal stripped serum (CCS; ThermoFisher Scientific), 100 U/ml penicillin/streptomycin and 1% sodium pyruvate. All cell lines were grown at 37° C. with 5% CO2 in a humidified environment. Mycoplasma detection of all cell lines were tested and negative results were observed.
(§2) Cell Growth and Proliferation Assays. 3D culture of a panel of breast cancer and colon cancer cells were seeded at a density of 3,000 cells per well in media containing 30% growth-factor-reduced matrigel or 5 mg/ml Collagen in optical-bottom 96-well plates. Patient-derived breast tumors were first dissociated into single cell suspensions and seeded at a density of 32,000 cells per well in media containing 30% matrigel. […] At the end of the experimental time point, cells were fixed in 100% methanol. The total number of cells, or the number of dead or proliferating cells was assessed using Hoechst, EarlyTox Dead Assay Kit (Molecular Devices), or Click-IT EdU Kit (ThermoFisher Scientific), respectively, and analyzed according to the manufacturer's protocols. Cells were then imaged with >95% well coverage (magnification of 10× with 3×3 tiled images) per field using confocal microscopy. The number of nuclei/Ethidium Homodimer-III+/EdU+ cells were counted using Imaris software (Bitplane).

MDA-MB-231 cells = experiment: 3D/2D cell growth assay (cell number, Hoechst); assay type: cell-based, human; settings: for cell growth in the presence of serum: 0.05-5 μM MK2206, 0.1-10 μM BKM120; for forskolin-stimulated cell growth: 10 μM forskolin, 3D
MCF7 cells = experiment: 3D/2D cell growth assay (cell number, Hoechst); assay type: cell-based, human; settings: for serum-stimulated growth (cell number): 60 nM KT5720, 1.4 μM SQ22536, 15 μM cAMPs-RP
Description: as §1, §2

[1] = test system: ERK activity in EKAR-transfected MCF7 cells; experiment: ERK activity assay (EKAR FRET reporter); assay type: cell-based, human; settings: 10% serum; 3D; time-lapse confocal
Description: ERK Activity Assay: The EKAR FRET-based system was used to monitor ERK activity. Briefly, breast cancer cells were co-transfected with pPBJ-puro-FRET3-EKAR-nls and the pCMV-hyPBase transposase vector, and stably transfected cells selected using FACS for EYFP and ECFP-positive cells. Cells were then cultured in 3D and serum-starved overnight. Prior live cell time-lapse confocal imaging, medium was replaced with 100 pM unacylated ghrelin and 10% serum. Images were acquired following FRET and analyzed using Imaris software. Data normalized to ECFP signal.

[2] = test system: MCF7, MDA-MB-468 and MDA-MB-231 cells; experiment: Cy3-tagged UAG binding assay in 3D cultures; design: species or system human; settings: 1 μM Cy3-tagged UAG with 10% serum; live confocal imaging
Description: Binding Assays. Cy3-tagged UAG (Pepmic Co, LtD) binding assays were performed in 3D cultures of breast cancer cells. MCF7, […] and MDA-MB231 cells were seeded at a density of 3,000 cells per well in Matrigel in optical-bottom 96-well plates. Cells were serum-starved overnight. Hoechst nuclear stain was added prior to the live cell imaging. 1 μM Cy3-tagged UAG with 10% serum was then added and time-lapse confocal imaging was performed to examine the localization of peptide binding.

[3] = test system: panel of breast cancer cell lines; experiment: 3D cell growth assay in a panel of breast cancer cell lines; assay type: cell-based, human; settings: 100 pM
Description: as §1, with “All cell lines were grown at 37° C. with 5% CO2 in a humidified environment. Mycoplasma detection of all cell lines were tested and negative results were observed.” left out
Cell Growth and Proliferation Assays. […] The total number of cells, or the number of dead or proliferating cells was assessed using Hoechst, EarlyTox Dead Assay Kit (Molecular Devices), or Click-IT EdU Kit (ThermoFisher Scientific), respectively, and analyzed according to the manufacturer's protocols. […] The number of nuclei/Ethidium Homodimer-III+/EdU+ cells were counted using Imaris software (Bitplane).

J110 allografts = experiment: Syngeneic allograft in FVB/N mice; assay type: in vivo, mouse; settings: AZP531 200 μg/kg s.c.; 7 days; FVB mice
Description: (§3) Animal Experimental Model. All animal experiments were performed in Monash Animal Research Platform at Hudson Institute for Medical Research and Research Animal Resource Center at Weill Cornell Medicine. Experimental procedures were in accordance with guidelines for Animal Care and Use, approved by Monash University Animal Ethics Committee (MMCA2014/20) and Weill Cornell Medicine IACUC Protocol (REQ00016929). Athymic Balb/c nude, FVB/N (Animal Resources Centre, Australia) and NSG (NOD Scid gamma; NOD.CgPrkdcscidIl2rgtmlwjl/SzJ) mice (The Jackson laboratory and Monash Breeding Colony platform) were used for this study. All mouse procedures were performed with 6-8 weeks old female mice and treatments administered via subcutaneous injection. See additional details included herein for specific in vivo experimental procedures.
A syngeneic breast cancer mouse model was created in female FVB/N mice. 1.25×10^5 J110 cells were injected into the mammary fat pad of 6-week old FVB (Immunocompetent) mice. […]
Measurement of Apoptotic Cells from Xenograft/Allograft Studies. MCF7, ZR75 and J110 tumor sections post treatment with 100 μg/kg or 200 μg/kg of unacylated ghrelin were assessed using Hoechst nuclear stain and confocal microscopy. Quantification of cells with apoptotic nuclei was performed using Image J.

MDA-MB-468 xenografts = experiment: Xenograft in NSG mice; assay type: in vivo, mouse; settings: 200 μg/kg s.c., 28 days
Description: as §3
Additional studies were also performed in NSG mice. MDA-MB-468 (1×10^6) were injected into the mammary fat pad of 6-week old NSG (immunodeficient) mice. Once the tumor reached a volume of 150 mm^3, the mice were randomized to receive saline (vehicle control) or AZP531 via subcutaneous injection. After 28 days of treatment, the mice were humanely sacrificed by cervical dislocation.

[4] = test system: patient-derived breast cancer cells; experiment: 3D growth of patient-derived breast cancer cells; assay type: cell-based, human
Excerpt: Human BC Tissues and Preclinical Patient Derived Xenograft Models. Patient-derived breast tumors (PDX, (Zhang, et al., Cancer Res 15:4885-97 (2013)) and estrogen receptor positive (ER^+) breast tumors were used under IRB-approved protocols (WCM 1410015560 and 1603017108). All patients provided written informed consent. Cells were isolated and maintained in DMEM, supplemented with 10% fetal calf serum (FCS), 100U/ml penicillin/streptomycin and 1% sodium pyruvate (ThermoFisher Scientific). Cells were grown at 37° C. in a humidified atmosphere with 5% CO2. See Method Details for cell growth and proliferation work specific procedures.
as §2

[5] = Allas et al. 2016; cited from earlier work

Nc1cc(C(F)(F)F)c(-c2cc(N3CCOCC3)nc(N3CCOCC3)n2)cn1 [BKM120]
cell growth in the presence of serum (MDA-MB-468 cells; serum): inhibited | cell growth in the presence of serum (MDA-MB-231 cells): inhibited

CCCCCCOC(=O)[C@]1(O)C[C@@H]2O[C@@]1(C)n1c3ccccc3c3c4c(c5c6ccccc6n2c5c31)C(=O)NC4 [KT5720]
serum-stimulated growth (cell number) (MCF7 cells; serum): significant reduction in cell number | growth of MDA-MB-468 cells (MDA-MB-468 cells): suppress the growth

NC1(c2ccc(-c3nc4ccn5c(=O)[nH]nc5c4cc3-c3ccccc3)cc2)CCC1 [MK2206]
forskolin-stimulated cell growth (MDA-MB-468 cells; 3D): inhibit | cell growth in the presence of serum (MDA-MB-468 cells; serum): inhibited | forskolin-stimulated cell growth (MDA-MB-231 cells): inhibit | cell growth in the presence of serum (MDA-MB-231 cells): inhibited

Nc1ncnc2c1ncn2C1CCCO1 (stereo not shown) [SQ22536]
serum-stimulated growth (cell number) (MCF7 cells; serum): significant reduction in cell number | growth of MDA-MB-468 cells (MDA-MB-468 cells): suppress the growth

N#CC(=C(/N)Sc1ccccc1N)/C(C#N)=C(\N)Sc1ccccc1N [U0126]
forskolin-stimulated cell growth (MCF7 cells; 10 μM forskolin, 3D): significant reduction | forskolin-stimulated cell growth (MDA-MB-468 cells; 3D): significant reduction | forskolin-stimulated cell growth (MDA-MB-231 cells): significant reduction | serum-stimulated EKAR (ERK) activity [1]: inhibited

Nc1ncnc2c1ncn2[C@@H]1O[C@@H]2CO[P@@](O)(=S)O[C@H]2[C@H]1O [cAMPS-RP]
serum-stimulated growth (cell number) (MCF7 cells; serum): significant reduction in cell number | growth of MDA-MB-468 cells (MDA-MB-468 cells): suppress the growth

Cy3-labeled unacylated ghrelin: Cy3-tagged UAG (Pepmic Co, LtD) used for binding assays (GSSFLSPEHQRVQQRKESKKPPAKLQP; also: Cy3 label, position not given here; UniProt Q9UBU3 24-50, looked up)
binding to responsive and non-responsive cells [2]: Binding

GSS(n-octanoyl)FLSPEHQRVQQRKESKKPPAKLQPR (GSS(Octanoyl)FLSPEHQRVQQRKESKKPPAKLQPR) [acyl ghrelin]
breast cancer cell growth in serum-stimulated conditions (FIG. 15G) [3]: inhibited breast cancer cell growth

SPEHQRVQ (also: cyclic, ring type not given here) [AZP531]
potency compared to doxorubicin (MCF7 cells; 3D, serum): greater potency than doxorubicin | serum-stimulated growth of cells (MCF7 cells; 3D, serum, dose-response): dose-dependent inhibition | extent of cell number reduction (MCF7 cells; 3D, serum, unlike doxorubicin): did not reduce cell number beyond that which was stimulated by serum | potency compared to doxorubicin (MDA-MB-468 cells; 3D, serum): greater potency than doxorubicin | serum-stimulated growth of cells (MDA-MB-468 cells; 3D, serum, dose-response): dose-dependent inhibition | extent of cell number reduction (MDA-MB-468 cells; 3D, serum, unlike doxorubicin): did not reduce cell number beyond that which was stimulated by serum | tumor cell growth (tumor volume) (J110 allografts): suppression of cell growth | tumor cell growth (tumor volume) (MDA-MB-468 xenografts): suppression of cell growth | serum-stimulated growth of patient-derived TNBC cells ([4]; dose-response): dose-dependent inhibition | potency compared to doxorubicin ([4]; patient-derived TNBC cells, serum): greater potency than doxorubicin | extent of cell number reduction ([4]; patient-derived TNBC cells, serum, unlike doxorubicin): did not reduce cell number beyond that which was stimulated by serum | pharmacokinetic properties relative to unacylated ghrelin [5]: better pharmacokinetic properties than unacylated ghrelin | safety profile [5]: established safety profile
